From ChEMBL document CHEMBL4689842, “EUbOPEN Chemogenomics Library wave 1” (2021)

What was measured:
Type in all cases: toxicity, cell-based
Fibroblast = assay: Incucyte cell viability with human fibroblast; settings: 10 µM, compound concentration 10 uM
HEK-293T = assay: Incucyte cell viability with HEK293T; settings: human, 10 µM, compound concentration 10 uM
U2OS = assay: Incucyte cell viability with U2OS; settings: human, 10 µM, compound concentration 10 uM
[1] = 0 h, replicate number 1, timepoint 0 hours
[2] = 6 h, replicate number 1, timepoint 6 hours
[3] = 12 h, replicate number 1, timepoint 12 hours
[4] = 18 h, replicate number 1, timepoint 18 hours
[5] = 18 h, replicate number 2, timepoint 18 hours
[6] = 24 h, replicate number 1, timepoint 24 hours
[7] = 6 h, replicate number 2, timepoint 6 hours
[8] = 12 h, replicate number 2, timepoint 12 hours
[9] = 0 h, replicate number 2, timepoint 0 hours
[10] = 24 h, replicate number 2, timepoint 24 hours
Further: filed as whole numbers so only -1 and 0 and 1 occur.

| Structure (SMILES) | Growth Rate (Fibroblast; [1]) | Growth Rate (Fibroblast; [2]) | Growth Rate (Fibroblast; [3]) | Growth Rate (Fibroblast; [4]) | Growth Rate (Fibroblast; [5]) | Growth Rate (Fibroblast; [6]) | Growth Rate (HEK-293T; [1]) | Growth Rate (HEK-293T; [2]) | Growth Rate (HEK-293T; [7]) | Growth Rate (HEK-293T; [3]) | Growth Rate (HEK-293T; [4]) | Growth Rate (HEK-293T; [6]) | Growth Rate (U2OS; [1]) | Growth Rate (U2OS; [7]) | Growth Rate (U2OS; [3]) | Growth Rate (U2OS; [8]) | Growth Rate (U2OS; [4]) | Growth Rate (U2OS; [6]) | Growth Rate (HEK-293T; [9]) | Growth Rate (U2OS; [10]) | other results |
| --- | --- | --- | --- | --- | --- | --- | --- | --- | --- | --- | --- | --- | --- | --- | --- | --- | --- | --- | --- | --- | --- |
| COc1ccc(-c2ccc3cc(C(=O)O)ccc3c2)cc1C12CC3CC(CC(C3)C1)C2 | 1 | 0 | 0 | 0 | 1 | 0 | 0 | 1 | 0 | 0 | 0 | 0 | 0 | 0 | 1 | 0 | 0 | 0 |  |  | Growth Rate (HEK-293T; [5]): 1 |
| Cl.Cl.Cl.c1ccc(N2CCN(Cc3nc4ccccc4[nH]3)CC2)nc1 | 0 |  |  |  | 1 | 1 | 1 | 1 |  | 1 | 1 | 0 | 0 | 0 | 1 |  | 1 | 1 | 0 |  | Growth Rate (Fibroblast; [8]): 1; Growth Rate (HEK-293T; [8]): 0 |
| C[C@H](NC[C@H](O)CP(=O)(O)CC1CCCCC1)c1ccc(Cl)c(Cl)c1.Cl | 0 | 0 | 1 | 0 |  | 0 | 1 | 0 | 1 | 1 | 1 | 1 | 0 | 0 | 1 | 0 | 1 | 1 | 0 | 0 | Growth Rate (Fibroblast; [10]): 1; Growth Rate (HEK-293T; [5]): 0 |
| O=C(O)CC/C=C\C[C@@H]1CO[C@H](c2ccccc2Cl)O[C@@H]1c1ccccc1O | 0 | 1 | 1 | 1 |  | 1 | 0 | 1 | 0 | 1 | 1 | 1 | 0 | 0 | 1 | 0 | 0 | 1 |  | 0 | Growth Rate (Fibroblast; [7]): 0; Growth Rate (HEK-293T; [8]): 0 |
| CCNC(=O)c1cc2c(N3CCOC[C@@H]3C)ccnc2n1C | 0 | 1 | 1 | 1 | 0 | 1 | 1 | 0 |  | 0 | 1 | 0 | 0 | 0 | 0 | 1 | 0 | 0 | 0 | 1 | Growth Rate (Fibroblast; [7]): 0; Growth Rate (Fibroblast; [8]): 0; Growth Rate (HEK-293T; [10]): 1; Growth Rate (U2OS; [9]): 1; Growth Rate (U2OS; [5]): 1 |
